Data reported in article PMC10562414, “GLP-1R signaling neighborhoods associate with the susceptibility to adverse drug reactions of incretin mimetics” (Nature Communications, 2023).

Biological target: GLP-1R (Homo sapiens, UniProt P43220)
Assay: ebBRET pathway activation (15 pathways) at the endoplasmic reticulum (tdrGFP-PTP1B)
Format: cell-based
Conditions: for Emax: Endoplasmic reticulum; for Efficacy (normalized) / Potency (logEC50): endoplasmic reticulum
Method: Subcellular resolution was achieved by using organelle-specific energy acceptors for early endosomes, the Golgi apparatus and the endoplasmic reticulum.
Data are represented as the mean ± SEM (n = 3 biologically independent experiments). EE early endosomes, GA Golgi apparatus, ER endoplasmic reticulum.
HEK293 cells were cultured in DMEM supplemented with 10% FBS, 1% penicillin/streptomycin, propagated in plastic flasks and grown at 37 °C in 5% CO2 and 90% humidity. […] After a 48-hour incubation, cells were washed once with HBSS and maintained in the same buffer.
Best fit values were excluded if EC50 was outside of the concentration range tested or if the span was negative. […] All further data processing was performed in R (version 4.2.1).
Pharmacological characterization of GLP-1R agonist signaling
profiles at the endoplasmic reticulum. a, Illustration depicting the ebBRET approach to
monitoring signaling at the endoplasmic reticulum. b, Concentration-response curves of GLP-1R
agonists across 15 pathways at the endoplasmic reticulum using tdrGFP-P TP1B. Data are
represented by the non-linear fit and sc aled according to the highest responding drug (n=3
biologically independent samples). Drug-s pecific polar area diagrams for efficacy (normalized
endoplasmic reticulum. Drugs were deemed to activate a given pathway after comparing
the top and bottom parameters from non-linear regression by one-sided extra sum-o f-
similarity index for efficacy (e) and potency (f) quantifies similarities and differences across drug
Drug- induced transducer engagement by GLP-1R at the
endoplasmic reticulum. Agonist concentration response curves for 15 transducers at the
endoplasmic reticulum. Drugs were deemed to activate a given pathway after comparing the top
and bottom parameters from non-linear regres sion by one-sided extra s um-o f-s quares F-t est
Data are represented as the
mean ± SEM (n=3 biologically independent samples). Sigmoidal dose-r esponse curves are
Polar area diagrams depict pathway activation at the endoplasmic
reticulum. Pathway-specific polar area diagrams for efficacy (normalized to the highest
were deemed to activate a given pathway after comparing the top and bottom parameters from
non-linear regression by one-sided extra sum-o f-s quares F-t est followed by Bonferroni

Chain of GLP-1R (P43220 24-463): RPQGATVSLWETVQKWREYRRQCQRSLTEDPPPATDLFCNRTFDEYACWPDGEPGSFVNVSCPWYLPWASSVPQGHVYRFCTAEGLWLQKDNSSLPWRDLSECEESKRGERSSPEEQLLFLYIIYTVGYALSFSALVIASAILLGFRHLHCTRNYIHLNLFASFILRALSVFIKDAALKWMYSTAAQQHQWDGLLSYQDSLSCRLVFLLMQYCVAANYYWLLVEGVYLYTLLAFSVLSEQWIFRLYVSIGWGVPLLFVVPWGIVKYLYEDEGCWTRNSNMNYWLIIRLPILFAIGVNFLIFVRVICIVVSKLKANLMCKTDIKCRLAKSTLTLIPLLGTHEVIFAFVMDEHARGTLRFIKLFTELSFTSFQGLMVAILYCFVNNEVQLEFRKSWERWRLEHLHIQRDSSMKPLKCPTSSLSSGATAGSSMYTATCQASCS

For `N#Cc1ccc(COc2cccc(C3CCN(Cc4nc5ccc(C(=O)O)cc5n4C[C@@H]4CCO4)CC3)n2)c(F)c1` [Danuglipron], the Emax (GRK/Gβγ) was 0.1421, the Emax (Gα11) was 0 and the Emax (Gα12) was 0. The Emax (Gα13) was 0, the Emax (Gα14) was 0 and the Emax (Gα15) was 0. The Emax (Gαi1) was 0, the Emax (Gαi2) was 0 and the Emax (Gαi3) was 0. For the same compound, the Emax (GαoA) was 0, the Emax (GαoB) was 0 and the Emax (Gαq) was 0. For the same compound, the Emax (Gαs) was 0.2391, the Emax (Gαz) was 0 and the Emax (βARR) was 0.08276. For the same compound, the “mGs recruitment at the endoplasmic reticulum, in words” value (Rluc8-mGs, tdrGFP-PTP1B, 60 min, n = 3) was “the only drug capable of recruiting mGs to the endoplasmic reticulum”, the “Efficacy (normalized)” value (GRK2/Gβγ, Supplementary Fig. 15c) was 0.6257 and the “Efficacy (normalized)” value (Gα11, Supplementary Fig. 15c) was 0. The “Potency (logEC50)” value (Gα11, Supplementary Fig. 15d) was 0, the “Efficacy (normalized)” value (Gα12, Supplementary Fig. 15c) was 0 and the “Potency (logEC50)” value (Gα12, Supplementary Fig. 15d) was 0. For the same compound, the “Efficacy (normalized)” value (Gα13, Supplementary Fig. 15c) was 0, the “Potency (logEC50)” value (Gα13, Supplementary Fig. 15d) was 0 and the “Efficacy (normalized)” value (Gα14, Supplementary Fig. 15c) was 0. For the same compound, the “Potency (logEC50)” value (Gα14, Supplementary Fig. 15d) was 0, the “Efficacy (normalized)” value (Gα15, Supplementary Fig. 15c) was 0 and the “Potency (logEC50)” value (Gα15, Supplementary Fig. 15d) was 0. The “Efficacy (normalized)” value (Gαi1, Supplementary Fig. 15c) was 0, the “Potency (logEC50)” value (Gαi1, Supplementary Fig. 15d) was 0 and the “Efficacy (normalized)” value (Gαi2, Supplementary Fig. 15c) was 0. The “Potency (logEC50)” value (Gαi2, Supplementary Fig. 15d) was 0, the “Efficacy (normalized)” value (Gαi3, Supplementary Fig. 15c) was 0 and the “Potency (logEC50)” value (Gαi3, Supplementary Fig. 15d) was 0. For the same compound, the “Efficacy (normalized)” value (GαoA, Supplementary Fig. 15c) was 0, the “Potency (logEC50)” value (GαoA, Supplementary Fig. 15d) was 0 and the “Efficacy (normalized)” value (GαoB, Supplementary Fig. 15c) was 0. The “Potency (logEC50)” value (GαoB, Supplementary Fig. 15d) was 0, the “Efficacy (normalized)” value (Gαq, Supplementary Fig. 15c) was 0 and the “Potency (logEC50)” value (Gαq, Supplementary Fig. 15d) was 0. For the same compound, the “Efficacy (normalized)” value (Gαs, Supplementary Fig. 15c) was 1, the “Potency (logEC50)” value (Gαs, Supplementary Fig. 15d) was 0.2956 and the “Efficacy (normalized)” value (Gαz, Supplementary Fig. 15c) was 0. For the same compound, the “Potency (logEC50)” value (Gαz, Supplementary Fig. 15d) was 0, the “Efficacy (normalized)” value (βARR2, Supplementary Fig. 15c) was 0.2909 and the “Potency (logEC50)” value (βARR2, Supplementary Fig. 15d) was 0.3992.
